Reference: patent US20220098160A1, “NOVEL CDK 8/19 INHIBITORS” (BIOCAD, priority 2018, published 2022)
Where a name gives a salt, the structure may show the parent alone.

Tests used:
[1] = General cytotoxicity test on HepG2 cells; assay type: cell-based; details: human, 72 hours incubation, 200 to 0.78 μM, average of several runs, read-out: Hep-G2 CC50
Procedure: The CC50 value was determined in a cytotoxicity test. The experiments were performed using HepG2 cells (hepatocellular carcinoma, ATCC© HB-8065™). The cells were seeded into 96-well plates (Corning, #3599) at a concentration of ˜20×10^3 cells per 100 μl of medium per well, and incubated for 72 hours with the introduced compounds in the concentration range from 200 to 0.78 μM. Cell viability was evaluated according to the method described above.

CDK8/CyclinC = target: T1, CDK8/CyclinC (Homo sapiens, UniProt P49336); test: LanthaScreen TR-FRET binding to recombinant CDK8 in complex with Cyclin C; details: CDK8/CyclinC 5 nM, Tracer 236 10 nm, average of several runs; read-out: CDK8-CycC IC50
T1 construct: purchased ThermoFisher PR7261B
T1 sequence (P49336 whole entry): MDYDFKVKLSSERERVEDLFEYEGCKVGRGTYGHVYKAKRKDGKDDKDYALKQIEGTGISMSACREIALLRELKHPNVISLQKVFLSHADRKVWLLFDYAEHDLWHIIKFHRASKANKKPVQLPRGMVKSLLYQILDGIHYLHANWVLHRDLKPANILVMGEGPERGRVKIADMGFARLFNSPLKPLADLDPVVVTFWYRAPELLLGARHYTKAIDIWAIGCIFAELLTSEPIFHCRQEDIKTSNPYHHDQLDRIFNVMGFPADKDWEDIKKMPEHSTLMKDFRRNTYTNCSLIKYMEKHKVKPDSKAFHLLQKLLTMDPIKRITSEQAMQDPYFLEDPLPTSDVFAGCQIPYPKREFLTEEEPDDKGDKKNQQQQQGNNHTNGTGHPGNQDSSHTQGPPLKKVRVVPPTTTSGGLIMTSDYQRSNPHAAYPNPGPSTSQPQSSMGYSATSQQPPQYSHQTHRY
T1 sequence (P24863 whole entry partner): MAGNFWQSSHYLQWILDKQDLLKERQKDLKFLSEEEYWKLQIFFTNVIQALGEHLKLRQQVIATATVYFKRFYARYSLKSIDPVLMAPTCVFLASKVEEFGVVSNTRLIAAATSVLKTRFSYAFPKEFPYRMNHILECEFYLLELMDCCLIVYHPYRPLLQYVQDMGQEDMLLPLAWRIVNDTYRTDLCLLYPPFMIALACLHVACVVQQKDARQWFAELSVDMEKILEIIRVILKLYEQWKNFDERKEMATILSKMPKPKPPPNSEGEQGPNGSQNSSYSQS
Procedure: The ability of the compounds described herein to bind to the CDK8 protein was determined using the LanthaScreen method (ThermoFisher).
The measurements were conducted in a reaction volume (15 μl) using a 384-well plate (Corning, #CLS4513). CDK8/CyclinC enzyme (ThermoFisher, #PR7261B) was mixed with Anti-His-tag-Biotin antibodies (ThermoFisher, #PV6090), Streptavidin-Eu (ThermoFisher, #PV6025), and the resulting mixture was added to the wells of the plate in the amount of 5 μl per well. The final concentrations of the substances were as follows: CDK8/CyclinC—5 nM, Streptavidin-Eu—3 nM, Anti-His-tag-Biotin—3 nM. Staurosporine was used as a control inhibitor, and a 0.1% solution of dimethyl sulfoxide (DMSO) in the reaction buffer containing 250 mM HEPES (pH 7.5), 50 mM MgCl2, 5 mM EGTA, and 0.05% Brij-35 was used as a blank.
Tested inhibitors and controls were added to the corresponding wells in the amount of 5 μl per well. The plate was incubated at room temperature for 20 minutes. […] The final concentration of the tracer was 10 nm. A reaction buffer was used as a negative control instead of the tracer solution. The plate was incubated for 40 minutes at 25° C. Then the TR-FRET signal was measured on a SPARK20 plate reader (Tesap, Switzerland) according to the manufacturer's recommendations, and converted to the amount of kinase-bound tracer. The IC50 value was determined using the SparkControl Magellan 1.2 program (Tesap, Switzerland) by approximating the experimental points using a four-parameter model with the Levenberg-Marquardt optimization (Table 11).

MV4-11 cell line = test: Antiproliferative activity on MV4-11 cell line (AlamarBlue); assay type: cell-based; details: Homo sapiens, 120 h incubation, average of several runs, read-out: MV-4-11 IC50
Procedure: The antiproliferative activity of the CDK8 inhibitors according to the present invention was measured in a cell test on a finite MV4-11 cell line (biphenotypic myelomonocytic leukemia, ATCC© CRL-9591™) using an intravital AlamarBlue dye (ThermoFisher, #DAL1100). The cells were grown on an RPMI-1640 medium (PanEco, #C330p) supplemented with 10% FBS (Gibco, #16140-071), then washed and re-seeded on a culture medium with 10% FBS (Gibco, #16140-071) in 96-well culture plates (Corning, #3599) in the amount of ˜10×10^3 cells per 100 μl of medium per well. The tested compounds were dissolved in DMSO and diluted with 10% FBS (Gibco, #16140-071) to a final concentration ranging from 0 to 100 μM. […] At the end of the incubation period, 15 μl of AlamarBlue reagent (ThermoFisher, #DAL1100) were added to the wells. The contents of the plates were mixed using an orbital shaker (Biosan, Latvia), and incubated further from 3 to 5 hours at 37° C. in an incubator with 5% C02. The number of living cells was detected using a microplate spectrophotometer (Tecan Infinite M200Pro, Switzerland) by measuring a fluorescence signal at an excitation wavelength (λEx) of 540 nm and emission wavelength (λEm) of 590 nm.
The IC50 value was determined using the Magellan 7.2 program (Tesap, Switzerland) by approximating the experimental points using a four-parameter model with the Levenberg-Marquardt optimization (Table 10).

[2] = Chemical stability in human blood plasma; assay type: in vitro ADME; details: pooled human blood plasma, 10 μM, 4 hours at 37° C., amount of substance remaining
Procedure: Chemical stability of the compounds described herein was determined in human blood plasma.
The determination of stability in human blood plasma was performed using a pooled human blood plasma taken from ten healthy donors. The initial solution of the candidate (10 mM in DMSO) was diluted with the pooled blood plasma to a concentration of 10 μM (test solution). The test solution was incubated in a solid-state thermostat for 4 hours at 37° C. The HPLC method and Agilent1200 chromatograph (Agilent, USA) were used to determine the peak areas of the compounds in the test samples corresponding to the initial test time (before incubation) and the final test time (after incubation in a solid-state thermostat for 4 hours at 37° C.) with preliminary precipitation of proteins using acetonitrile. Chromatographic analysis was performed using a gradient elution mode at a flow rate of 1 ml/min. The amount of substance in the sample expressed in % was determined after the thermostat treatment.

[3] = Enzymatic stability in human liver S9 fractions; assay type: in vitro ADME; details: pooled human liver S9 fraction; 0.5 mg/ml human liver S9, 10 μm compound, 37° C., pH 7.4
Procedure: Determining enzymatic stability of the candidates made it possible to evaluate the resistance of the compounds of the present invention to the exposure to biotransformation enzymes.
The enzymatic decomposition rate of the compounds was determined by incubation in a solid-state thermostat at 37° C. of a reaction mixture containing 0.5 mg/ml of pooled S9 fractions of the human liver (XenoTech, USA, cat. # H0610), 10 μm compounds, 2 mM β-nicotinamide adenine dinucleotide (Carbosynth, UK, cat. # NN 10871), and 4 mM magnesium chloride in 0.1 M sodium phosphate buffer (pH=7.4). The reaction was stopped with acetonitrile based on 100 μl of acetonitrile per 100 μl of the reaction mixture. After stopping the reaction, the samples were centrifuged for 10 minutes at 10,000 rpm. The supernatant was analyzed by chromatography using an Agilent1200 chromatograph (Agilent, USA). Chromatographic analysis was performed in a gradient elution mode at a flow rate of 1 ml/min. A logarithm of the peak area of the substance was plotted versus time. The dependent coefficient of this line corresponded to the elimination rate constant (k), which was used to calculate the half-life of the drug (t1/2) and decomposition rate (CLint): […]

[4] = Permeability through a monolayer of Caco-2 cells; assay type: in vitro ADME; details: human; for Papp A→B at 2 h, 10 μM: pH 6.5 upper / pH 7.4 lower chamber, 2 h at 37° C.; for efflux ratio at 2 h, 10 μM: Papp B-A/Papp A-B
Procedure: Determining the permeability through a monolayer of Caco-2 cells makes it possible to assess the ability of the substances to penetrate biological membranes by means of both active and passive transport.
The intestinal epithelial cells (Caco-2) were cultured using filter inserts ([…], BD Falcon with High Density) for 21 days, after which the monolayer integrity was checked using a Lucifer Yellow dye (Sigma-Aldrich, USA) according to the standard protocol. When setting up an A→B transfer (“intestinal lumen”—“blood flow” transfer), solutions of the tested substances were introduced in pH 6.5 buffer (HBSS, 10 mM HEPES, 15 mM glucose solution) at a concentration of 10 μM into the upper chamber, while the lower chamber was filled with pH 7.4 buffer (HBSS, 10 mM HEPES, 15 mM Glucose solution, 1% BSA). When setting up a B→A transfer (“blood flow”—“intestinal lumen” transfer), the upper chamber was filled with pH 6.5 buffer, and the solutions of the tested substances were introduced in pH 7.4 buffer at a concentration of 10 μM into the lower chamber. Propranolol, which is a high permeability substance, was used as a control.
After incubation for 2 h at 37° C. in an atmosphere containing 5% CO2, the amounts of the tested substances in the upper and lower chambers were determined by the HPLC method using an Agilent1200 chromatograph (Agilent, USA) with preliminary precipitation of proteins with acetonitrile. Chromatographic analysis was performed using a gradient elution mode at a flow rate of 1 ml/min. Peak areas corresponding to the compounds were determined on chromatograms. Based on the peak area values of the compound in calibration standards, compound concentrations in the initial solution and in the samples taken from the wells of the upper and lower chambers were determined.
Permeability through a layer of cells (Papp) was calculated based on the formula:
Papp=(C(t)*V)/(C(θ)*t*Area), where
Papp is the effective permeability constant, m/s V is the solution volume (0.8 ml in the A→B test, and 0.2 ml in the B→A test), ml Area is the surface area of the membrane (0.33 cm^2), cm^2 t is the incubation time (7,200 s), s C(θ) is the concentration of the initial solution, μM C(t) is the concentration of the solution after 2 hours (in the sample from the lower chamber well (test A→B), and in the sample from the upper chamber well (test B→A)), μM.
The value was calculated using the following formula:
efflux=Papp B-A/Papp A-B, where
Papp A-B is the permeability value during direct assay (A→B); Papp B-A is the permeability value during reverse assay (B→A);

| SMILES | IC50 (CDK8/CyclinC) | IC50 (MV4-11 cell line) | Stability in blood plasma, % [2] | Stability in blood plasma, % ([2]; dihydrochloride) | CC50 at 72 h [1] | microsomal CLint at 10 μM [3] | Papp A→B at 2 h, 10 μM [4] | efflux ratio at 2 h, 10 μM [4] |
| --- | --- | --- | --- | --- | --- | --- | --- | --- |
| CC(C)N1CCN(C(=O)c2ccc3cc(CCNc4ccnc5ccc(C#N)cc45)ccc3c2)CC1 [Compound 7] | 5.77 nM | 91 nM | – | – | 8900 nM | – | – | – |
| CN1CCN(C(=O)c2ccc3cc(CCNc4ccnc5ccc(C#N)cc45)ccc3c2)CC1 [Compound 5, 4-((2-(6-(4-methylpiperazine-1-carbonyl)naphth-2-yl)ethyl)amino) quinoline-6-carbonitryl] | 6.07 nM | 125 nM | 100% | – | > 60000 nM | 7.2 µL/min/mg | 7.1 ×10⁻⁶ cm/s | 2 |
| CN1CCN(C(=O)c2ccc3cc(CCNc4cnnc5ccc(C#N)cc45)ccc3c2)CC1 [Compound 4, 4-((2-(6-(4-methylpiperazine-1-carbonyl)naphth-2-yl)ethyl)amino) cinnoline-6-carbonitryl] | 404 nM | – | – | – | – | – | – | – |
| CN1CCN(C(=O)c2ccc3cc(CCNc4c(Cl)cnc5ccc(C#N)cc45)ccc3c2)CC1 [Compound 9, 3-chloro-4-((2-(6-(4-methylpiperazine-1-carbonyl)naphth-2-yl)ethyl)amino) quinoline-6-carbonitryl] | 20.5 nM | 106 nM | 91.1% | – | 47300 nM | – | – | – |
| CN1CCN(C(=O)c2ccc3cc(CCNc4ccnc5ncc(C#N)cc45)ccc3c2)CC1 [Compound 11, 5-((2-(6-(4-methylpiperazine-1-carbonyl)naphth-2-yl)ethyl)amino)-1,8-naphthyridin-3-carbonitryl] | 655 nM | 3300 nM | – | – | 85100 nM | – | – | – |
| CN1CCN(C(=O)c2ccc3cc(CCOc4ccnc5ccc(C#N)cc45)ccc3c2)CC1 [Compound 8, 4-(2-(6-(4-methylpiperazine-1-carbonyl)naphth-2-yl)ethoxy) quinoline-6-carbonitryl] | 58.2 nM | 602 nM | – | – | 11200 nM | – | – | – |
| N#Cc1ccc2nccc(NCCc3ccc4cc(C(=O)N5CCNCC5)ccc4c3)c2c1 [Compound 18, 4-((2-(6-(piperazine-1-carbonyl)naphth-2-yl)ethyl)amino)quinoline-6-carbonitryl] | – | 19 nM | 100% | – | 11600 nM | 4.4 µL/min/mg | 22.4 ×10⁻⁶ cm/s | 0.3 |
| N#Cc1ccc2nccc(NCCc3ccc4cc(C(=O)N5CCN(CC(F)(F)F)CC5)ccc4c3)c2c1 [Compound 17, 4-((2-(6-(4-(2,2,2-trifluoroethyl)piperazine-4-carbonyl)naphth-2-yl)ethyl)amino)quinoline-6-carbonitryl] | 28.5 nM | 113 nM | – | – | 17900 nM | – | – | – |

Further lines, with some results ahead:

| IC50 (CDK8/CyclinC) | IC50 (MV4-11 cell line) | Stability in blood plasma, % [2] | Stability in blood plasma, % ([2]; dihydrochloride) | SMILES | CC50 at 72 h [1] | microsomal CLint at 10 μM [3] | Papp A→B at 2 h, 10 μM [4] | efflux ratio at 2 h, 10 μM [4] |
| --- | --- | --- | --- | --- | --- | --- | --- | --- |
| – | – | – | 87.9% | CN1CCN(C(=O)c2ccc3cc(CCNc4c(Cl)cnc5ccc(C#N)cc45)ccc3c2)CC1 [Compound 9a, 3-chloro-4-((2-(6-(4-methylpiperazine-1-carbonyl)naphth-2-yl)ethyl)amino) quinoline-6-carbonitryl dihydrochloride] | – | – | – | – |
| 6.54 nM | 79 nM | – | – | CCN1CCN(C(=O)c2ccc3cc(CCNc4ccnc5ccc(C#N)cc45)ccc3c2)CC1 [Compound 12] | 10600 nM | – | – | – |
| 118 nM | 2610 nM | – | – | CN1CCN(C(=O)c2ccc3cc(CCSc4ccnc5ccc(C#N)cc45)ccc3c2)CC1 [Compound 19, 4-((2-(6-(4-methylpiperazine-1-carbonyl)naphth-2-yl)ethyl)thio) quinoline-6-carbonitryl] | > 200000 nM | – | – | – |
| 4.04 nM | 57 nM | – | – | N#Cc1ccc2nccc(NCCc3ccc4cc(C(=O)N5CCOCC5)ccc4c3)c2c1 [Compound 13] | ~15000 nM | – | – | – |
